Data on four compounds can be found in patent US7399639B2, “Sensors, and methods of making and using the same” (Massachusetts Institute of Technology, priority 2003, dated 2008).

SMILES strings stand for the structures. “And” between values parts separate entries of the source, which are not always exact repeats. Equal values may be shown once. Read-outs that look alike come from different tables or passages of the source.

The nature of series [1]: Affinity of compound 30 for Zn2+. The format is binding.
Series [2] can be described thus: Quantum yields / fluorescence emission against fluorescein standard. The format is physicochemical. Conditions: for λmax (Em, nm): HEPES 50 mM, pH 7.5, KCl 100 mM; for Φ: fluorescein standard. Here is the method:
(§1) The above results were obtained using the following experimental methods. For all fluorescence experiments, the glassware was washed sequentially with 20% HNO3, deionized water, and ethanol before use. Purified water (resistivity […]) was obtained from a Millipore Milli-Q water purification system. Fluorophore stock solutions in DMSO were made up to concentrations of 1 mM and kept at 4° C. in 100-500 μL aliquots. Portions were thawed and diluted to the required concentrations immediately prior to each experiment. Fluorescence and absorption data were acquired in HEPES buffer (50 mM, pH 7.5, KCl 100 mM) except where otherwise noted. Solutions were transferred to clean, dry propylene containers for storage, and filtered through 0.25 μm syringe filters before data acquisition. Fluorescence spectra were measured from 475 nm to 650 nm. All measurements were performed in triplicate.
Quantum Yields. Quantum yields were calculated by recording UV-vis spectra of the fluorophore under study and a 1 μM fluorescein standard in 0.1 N NaOH to determine the wavelength where sample and fluorescein absorption were equal. The fluorescence spectrum of each was then recorded, exciting at the wavelength determined by uv-vis spectra comparison. The integrated emission of the sample was normalized to the fluorescein standard and multiplied by the standard quantum yield of 0.95. Brannon, J. H.; Magde, D. J. Phys. Chem. 1978, 82, 705-709.

Series [3] is described as follows: Extinction coefficients / absorption spectra in HEPES buffer. Particulars: for λmax (Abs, nm): HEPES 50 mM, pH 7.5, KCl 100 mM. In kind it is physicochemical. Here is the method: as §1
Extinction Coefficients. A 2 mL portion of HEPES buffer was titrated with 2 μL aliquots of 1 mM fluorophore stock solution and the absorption measured at each concentration. The absorbance at the maximum was plotted as a function of concentration, and the slope was taken as the extinction coefficient. The procedure was repeated using 1.9 mL portions of HEPES buffer containing 100 μL aliquots of 10 mM ZnCl2 solution.

Series [4] has as its system HeLa cells. The series is described as follows: Cell permeability studies using Zn-pyrithione, fluorescence microscopy. In kind it is cell-based. Conditions: 5 μM ligand 30 min RT, 10 μM Zn^2+-pyrithione. The protocol:
FIG. 10 depicts phase contrast (A) and fluorescence microscopy (B) visualization of HeLa cells treated with the ligands of Formula 101, 103, and 31 in the absence of zinc. Cells were bathed in 5 μM ligand for 30 min at RT, followed by untreated PBS for 10 min.
FIG. 11 depicts phase contrast (A) and fluorescence microscopy (B) visualization of HeLa cells treated with the ligands of Formula 101, 103, and 31 in the presence of zinc. Cells were bathed in 5 μM ligand for 30 min at RT, followed by 10 μM Zn^2+-pyrithione.
FIG. 12 depicts phase contrast (A) and fluorescence microscopy (B) visualization of HeLa cells treated with the ligands of Formula 100, 102, and 31 in the absence of zinc. Cells were bathed in 5 μM ligand for 30 min at RT, followed by untreated PBS for 10 min.
FIG. 13 depicts phase contrast (A) and fluorescence microscopy (B) visualization of HeLa cells treated with the ligands of Formula 100, 102, and 31 in the presence of zinc. Cells were bathed in 5 μM sensor for 30 min at RT, followed by 10 μM Zn^2+-pyrithione.

Series [5] can be described thus: Metal ion selectivity measurements of Zinpyr dyes. Particulars: 1 μM Zinpyr, divalent first-row transition metals and Cd(II). The protocol:
Metal Ion Selectivity Measurements. The metal ion selectivity of Zinpyr-5 and Zinpyr-6 for a number of divalent first-row transition metals, in addition to cadmium, is investigated using fluorescence spectroscopy. Aqueous metal ion solutions for Ca(II), Mg(II), Mn(II), Co(II), Ni(II) and Cd(II) are prepared from the chloride salts and Millipore water. The Cu(II) solution are prepared from copper sulfate and Fe(II) solutions are prepared immediately before use with ferrous ammonium sulfate and Millipore water that was thoroughly purged with Ar. In a typical experiment, 15 μL of a ˜10 mM metal solution is added to a 1 μM Zinpyr solution (3 mL) and the emission spectra is recorded with excitation at 498 nm (Zinpyr-5) or 500 nm (Zinpyr-6). […] of 10 mM ZnCl2 is then added and the emission spectra is obtained. The spectra are integrated from 505-650 nm (Zinpyr-5) or 450-650 nm (Zinpyr-6) and normalized.

Series [6] in a line: Quantum yield and emission measurements of Zinpyr dyes. In kind it is physicochemical. Here is the method: (§2) General Spectroscopic Methods. PIPES (piperazine-N,N′-bis(2-ethanesulfonic acid) from Calbiochem, KCl (99.997%), and ZnCl2 (99.999%) are purchased and used as received. All experiments for this Example Eight, with the exception of the pKa experiment, are conducted under stimulated physiological conditions using 50 mM PIPES, 100 mM KCl adjusted to pH 7 via drop-wise addition of KOH. Millipore water is used for all aqueous solutions, which are filtered through a 0.2 μm cellulose filter prior to use (buffered dye solutions should not be put through the filters because the dyes will get stuck). An Orion glass electrode, which is calibrated prior to each use, is used to determine solution pH. The accuracy of each micropipette is verified prior to use. Zinc solutions are prepared from 100 mM and 10 mM stock solutions in water (pH 5). The concentrations of the stock solutions is verified by spectrophotometric titration with 2,2′:6′,2″-terpyridine, which is was performed a minimum of three times per solution. In a typical titration, 0.5 μL aliquots of a 10 mM (nominal) Zn(II) solution in water is added to a 10 μM solution of terpyridine in 50 mM PIPES, 100 mM KCl, pH 7 prepared from a 100 mM stock solution in DMSO. The equivalence point at 321 nm and at 291 nm is determined and used to calculate the Zn(II) concentration. Stock solutions of Zinpyr-5 (0.76 mM) and Zinpyr-6 (0.41 mM) in DMSO are prepared, stored at −25° C., and thawed in the dark immediately prior to use. All spectral data are manipulated with the KaleidaGraph software package.
Fluorescence Spectroscopy. Emission spectra are obtained using a Hitachi F-3010 spectrofluorimeter linked to a Pentium PC running the SpectraCalc software package. A 150 W Xe lamp (Ushio Inc.) operating at a current of 5 A provides the excitation. A rhodamine quantum counter is used to normalize the spectra for excitation intensity, and manufacturer-supplied correction curves are used to normalize the emission spectra. Manufacturer supplied photomultiplier curves are used to correct for emission intensity. A circulating water bath is used during all experiments to regulate the temperature at 25.0° C.±0.1° C. All spectra are obtained using 3 nm slit widths and a 240 nm/min scan speed, and all samples are contained in a 1 cm×1 cm quartz cuvette with a 3.5 mL volume. All measurements are made in triplicate, with the exception of the Zinpyr-6 pKa titration, and on different days to assure the authenticity of the results.
Quantum Yield Measurements. The quantum yields of Zinpyr-5 and Zinpyr-6 are determined using a solution of fluorescein in 0.1 N NaOH (φ=0.95) as a reference. In a typical experiment, a 6 mL solution of 1 μM Zinpyr is prepared. For metal-free studies, 6 μL of 100 mM K4EDTA is added to chelate any adventitious metal ions. To determine the quantum efficiencies of the metal-bound dyes, either 2 μL (Zinpyr-5) or 6 μL (Zinpyr-6) of a 100 mM ZnCl2 stock solution is added to a 1 μM Zinpyr solution. The concentration of the reference solution is adjusted to match the excitation spectra of the Zinpyr dye, and the appropriate excitation wavelength is determined from where the reference and probe excitation spectra intersect. Excitation is provided at 497 nm (Zinpyr-5 and Zinpyr-6, metal-free), 491 nm (Zinpyr-5, metal-bound), or 493 (Zinpyr-6, metal-bound). Emission spectra are integrated from 450-650 nm and the quantum yields were calculated using the standard equation. Godwin, H. A.; Berg, J. M. J. Am. Chem. Soc. 1996, 118, 6514-6515.

The nature of series [7]: Protonation constants that affect fluorescence of Zinpyr dyes. The format is physicochemical. Conditions: for pKa: aqueous solution of 100 mM KCl, 10 mM KOH, Zinpyr-6 value estimated from preliminary results. Here is the method: Studies of Protonation Constants that Effect Fluorescence. The apparent protonation constants that affect fluorescence are determined by plotting the integrated emission intensity versus pH from ˜12.5 to 2. In a typical experiment, a 30 mL solution of 1 μM Zinpyr in 100 mM KCl, 10 mM KOH is adjusted to pH 12.5 by drop-wise addition of KOH. Aliquots of 6 N, 2 N, 1 N, 0.5 N, 0.5 N, 0.1 N, and 0.01 N HCl are added to achieve pH changes of approximately […], and the emission spectrum is gathered at each interval. The overall volume change for each experiment is monitored so as not to exceed ˜3%. Excitation is provided at 498 nm for Zinpyr-5 and at 500 nm for Zinpyr-6. Data is integrated from 505 nm to 650 nm, normalized and plotted against pH. The data were fit to the non-linear expression previously described. Godwin, H. A.; Berg, J. M. J. Am. Chem. Soc. 1996, 118, 6514-6515.

Series [8] in a line: Zn(II) binding studies (fluorescence spectroscopy), dual-metal buffering system, Zinpyr dyes. Particulars: titration with dual-metal buffering system, 0.17 nM to 25 nM free Zn(II). Here is the method:
General Spectroscopic Methods. PIPES (piperazine-N,N′-bis(2-ethanesulfonic acid) from Calbiochem, KCl (99.997%), and ZnCl2 (99.999%) are purchased and used as received. All experiments for this Example Eight, with the exception of the pKa experiment, are conducted under stimulated physiological conditions using 50 mM PIPES, 100 mM KCl adjusted to pH 7 via drop-wise addition of KOH. Millipore water is used for all aqueous solutions, which are filtered through a 0.2 μm cellulose filter prior to use (buffered dye solutions should not be put through the filters because the dyes will get stuck). An Orion glass electrode, which is calibrated prior to each use, is used to determine solution pH. The accuracy of each micropipette is verified prior to use. Zinc solutions are prepared from 100 mM and 10 mM stock solutions in water (pH 5). […] The equivalence point at 321 nm and at 291 nm is determined and used to calculate the Zn(II) concentration. […]
Zn(II) Binding Studies (Fluorescence Spectroscopy). The dissociation constants, Kd, for Zn(II) binding were determined using a dual-metal buffering system, which affords concentrations of free Zn(II) in the nM range. […] The response was quantified by integrating the emission intensity from 505-650 nm and normalizing. […]
The binding affinities for Zinpyr-5 and Zinpyr-6 were determined using the dual-metal buffering system previously described. […]

Series [9] can be described thus: UV-visible spectroscopy of Zinpyr dyes (excitation maxima, molar absorptivity). The format is physicochemical. Particulars: for ε: at excitation maximum. Here is the method: as §2
UV-Visible Spectroscopy. Excitation spectra are obtained using a Cary IE scanning spectrophotometer controlled by a Pentium PC running the manufacturer supplied software program. A circulating water bath is used during all acquisitions to maintain the temperature at 25.0° C.±0.1° C. All data are collected using a 600 nm/min scan speed and a 1 nm data interval. […] Molar absorptivity values are determined from a minimum of three titrations over a concentration range of 10 μM to 1 μM. […]

The conditions of series [10]: metal-free; reported elsewhere; cited from earlier work.
For series [11] the following is noted: reported elsewhere; cited from earlier work.
[12] abbreviates: metal-free, 50 mM PIPES, 100 mM KCl, pH 7.

As for `O=C(O)c1ccccc1-c1c2cc(Cl)c(=O)cc-2oc2cc(N(Cc3ccccn3)Cc3ccccn3)ccc12` [compound 30, 9-(o-Carboxyphenyl)-2-chloro-6-[bis(2-pyridylmethyl)amino]-3-xanthanone], the “affinity for Zn^2+” value in series [1] is “weak”.
Regarding `O=C(O)c1ccc2c(c1)C(=O)OC21c2cc(Cl)c(O)c(CN(Cc3ccccn3)Cc3ccccn3)c2Oc2c1cc(Cl)c(O)c2CN(Cc1ccccn1)Cc1ccccn1` [Formula 101], in series [2] (+Zn^2+ complex), the Brightness was 5.5 × 10^4; the “λmax (Em, nm)” value is on record as 532 nm; the Φ is 0.62. Moreover, in [2] (free ligand), the Brightness is recorded as 1.4 × 10^4; the “λmax (Em, nm)” value was determined as 536 nm; the Φ was 0.17. Besides, in series [3] (+Zn^2+ complex), the εmax was 88000 M⁻¹ cm⁻¹ and the “λmax (Abs, nm)” value came to 509 nm. For the same compound, in [3] (free ligand), the εmax was 81000 M⁻¹ cm⁻¹ and the “λmax (Abs, nm)” value was 520 nm. Further, the uptake into cells result in series [4] is given as “not taken up by the cell”.
A word on the pKa: it is the pH at which an ionisable group is half protonated. With `O=C(O)c1ccccc1-c1c2cc(Cl)c(=O)cc-2oc2c(CNc3ccc(Cl)cc3CN(Cc3ccccn3)Cc3ccccn3)c(O)ccc12` [Zinpyr-6], the metal ion selectivity entry in [5] was “Zn(II) and Cd(II) selective”. The “increase in brightness upon Zn(II) coordination” value in series [6] is 3.8 fold and 3.7 fold. Further, the “increase in quantum efficiency upon addition of excess Zn(II)” value in series [6] is on record as 3.4 fold. Also, the entries for the “brightness (φ×ε)” value in series [6] (Zn(II) bound) and in series [6] (metal-free) were 33,000 M^−1 cm^−1 and 8,900 M^−1 cm^−1, respectively. For the same compound, the results for the emission maximum in [6] (Zn(II) bound) and in series [6] (setting [12]) were 515 nm and 519 nm, respectively. Also, the results for the quantum efficiency in [6] (Zn(II) bound) and in series [6] (setting [12]) were 0.34 and 0.10, respectively. Besides, in series [7] (Zinpyr-6 data preliminary), the “pH at which maximum emission is reached” value was ~5. The pKa is ~10 in series [7] (read-out: apparent pKa, first protonation event (fluorescence enhancement; tertiary amine)); ~6.4 in series [7] (read-out: apparent pKa, second protonation event (fluorescence enhancement; aniline nitrogen)); ~4.6 in series [7] (read-out: apparent pKa, third protonation event (fluorescence quenching)). The “increase in integrated emission” value in series [8] was 2.5- to 3 fold and ~3 fold. Also, in series [9] (Zn(II) bound), the excitation maximum is recorded as 495 nm. For the same compound, the ε is reported as 98,000 M^−1 cm^−1 in series [9] (Zn(II) bound) and 88,600 M^−1 cm^−1 in [9] (metal-free).
As to `COc1ccc(NCc2c(O)ccc3c(-c4ccccc4C(=O)O)c4cc(Cl)c(=O)cc-4oc23)c(CN(Cc2ccccn2)Cc2ccccn2)c1` [Zinpyr-3], the quantum efficiency in [10] is reported as 0.04. Moreover, the “fluorescence change upon addition of Zn(II)” value in series [11] is on record as “negligible”.
